In patent US20260373266A1, “PROTEIN DEGRADERS AND USES THEREOF” (KYMERA THERAPEUTICS, INC., priority 2022, published 2026):

Target: T1, DCAF1 WD40 domain (residues 1077-1390) (Homo sapiens, UniProt Q9Y4B6)
T1 construct: DCAF1 WD40 domain (residues 1077-1390)
Assay: DCAF1 binding assay by SPR (Biacore 8K+), DCAF1-3 KD
Settings: 25 °C, read-out: DCAF1-3 SPR (KD)

T1 sequence (Q9Y4B6 1077-1390): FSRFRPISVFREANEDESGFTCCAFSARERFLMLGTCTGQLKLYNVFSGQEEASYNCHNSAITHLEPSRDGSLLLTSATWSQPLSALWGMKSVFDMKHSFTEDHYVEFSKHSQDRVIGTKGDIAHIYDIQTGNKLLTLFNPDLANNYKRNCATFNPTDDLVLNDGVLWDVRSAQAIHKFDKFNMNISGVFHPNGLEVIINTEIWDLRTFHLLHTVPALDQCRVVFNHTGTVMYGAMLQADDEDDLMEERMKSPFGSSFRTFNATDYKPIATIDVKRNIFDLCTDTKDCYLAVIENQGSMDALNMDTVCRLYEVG

Structure (SMILES)	Kd [µM]
NC(=O)CCc1cccc(N2CCC[C@H]3[C@@H]2CCN3c2cc(N3CCCCC3)ccn2)c1 [I-881]	< 10
Cc1c(F)ccc(F)c1-c1c(C(=O)N[C@@H](CC(N)=O)c2cccc(Cl)c2)c[nH]c1S(C)(=O)=O [I-882]	< 10
Cc1c(F)ccc(F)c1-c1[nH]ncc1C(=O)N[C@@H](CC(=O)N1CCC(O)C1)c1cccc(Cl)c1 (stereo partly shown) [I-883]	< 10
Cc1c(F)ccc(F)c1-c1[nH]ncc1C(=O)N[C@@H](CC(=O)N1CCN(C(=O)OCc2ccccc2)CC1)c1cccc(Cl)c1 [I-884]	< 10
Cc1c(F)ccc(F)c1-c1[nH]ncc1C(=O)N[C@@H](CC(=O)N1CCNCC1)c1cccc(Cl)c1 [I-885]	< 10
Cc1c(F)ccc(F)c1-c1c(C(=O)N[C@@H](CC(N)=O)c2cccc(Cl)c2)cn(C)c1C(=O)c1ccccc1 [I-886]	< 10
Cc1sc2c(c1C)C(c1ccc(Cl)cc1)=N[C@@H](CC(=O)NCCOCCOCCOCCOCCOCCOCCOCCn1cc(C(=O)N[C@@H](CC(N)=O)c3cccc(Cl)c3)c(-c3ccccc3F)n1)c1nnc(C)n1-2 [I-888]	> 200
Cc1sc2c(c1C)C(c1ccc(Cl)cc1)=N[C@@H](CC(=O)NCCOCCOCCOCCOCCOCCOCCn1cc(C(=O)N[C@@H](CC(N)=O)c3cccc(Cl)c3)c(-c3ccccc3F)n1)c1nnc(C)n1-2 [I-889]	> 200
Cc1sc2c(c1C)C(c1ccc(Cl)cc1)=N[C@@H](CC(=O)NCCOCCOCCOCCOCCC1CCN(c3ccnc(N4CC[C@@H]5[C@H]4CCCN5c4cccc(F)c4)c3)CC1)c1nnc(C)n1-2 [I-890]	< 10
Cc1sc2c(c1C)C(c1ccc(Cl)cc1)=N[C@@H](CC(=O)NCCOCCOCCOCCOCCOCCC1CCN(c3ccnc(N4CC[C@@H]5[C@H]4CCCN5c4cccc(F)c4)c3)CC1)c1nnc(C)n1-2 [I-891]	< 10
Cc1sc2c(c1C)C(c1ccc(Cl)cc1)=N[C@@H](CC(=O)NCCCCCCCCCCCCC(=O)c1[nH]cc(C(=O)C[C@@H](CC(N)=O)c3cccc(Cl)c3)c1-c1ccccc1F)c1nnc(C)n1-2 [I-892]	> 200
Cc1sc2c(c1C)C(c1ccc(Cl)cc1)=N[C@@H](CC(=O)NCCCCCCCCCCCCCCCCCC(=O)c1[nH]cc(C(=O)N[C@@H](CC(N)=O)c3cccc(Cl)c3)c1-c1ccccc1F)c1nnc(C)n1-2 [I-893]	> 200
Cc1sc2c(c1C)C(c1ccc(Cl)cc1)=N[C@@H](CC(=O)NCCCCCCCCCCCCCCCCCCCCC(=O)c1[nH]cc(C(=O)N[C@@H](CC(N)=O)c3cccc(Cl)c3)c1-c1ccccc1F)c1nnc(C)n1-2 [I-894]	> 200
Cc1sc2c(c1C)C(c1ccc(Cl)cc1)=N[C@@H](CC(=O)NCCOCCOCCOCCOCCOCCOCCC1CCN(c3ccnc(N4CC[C@@H]5[C@H]4CCCN5c4cccc(F)c4)c3)CC1)c1nnc(C)n1-2 [I-895]	10 to 100
Cc1sc2c(c1C)C(c1ccc(Cl)cc1)=N[C@@H](CC(=O)NCCOCCOCCOCCOCC(=O)c1[nH]cc(C(=O)N[C@@H](CC(N)=O)c3cccc(Cl)c3)c1-c1ccccc1F)c1nnc(C)n1-2 [I-896]	< 10
Cc1sc2c(c1C)C(c1ccc(Cl)cc1)=N[C@@H](CC(=O)NCCOCCOCCOCCOCCOCC(=O)c1[nH]cc(C(=O)N[C@@H](CC(N)=O)c3cccc(Cl)c3)c1-c1ccccc1F)c1nnc(C)n1-2 [I-897]	< 10
Cc1sc2c(c1C)C(c1ccc(Cl)cc1)=N[C@@H](CC(=O)NCCOCCOCCOCCOCCOCCOCC(=O)c1[nH]cc(C(=O)N[C@@H](CC(N)=O)c3cccc(Cl)c3)c1-c1ccccc1F)c1nnc(C)n1-2 [I-898]	< 10
Cc1sc2c(c1C)C(c1ccc(Cl)cc1)=N[C@@H](CC(=O)N(C)CCOCCOCCOCCOCCOCC(=O)c1[nH]cc(C(=O)N[C@@H](CC(N)=O)c3cccc(Cl)c3)c1-c1ccccc1F)c1nnc(C)n1-2 [I-900]	< 10
Cc1sc2c(c1C)C(c1ccc(Cl)cc1)=N[C@@H](CC(=O)NCCCCCCCCCCCCCCCCCC1CCN(c3ccnc(N4CC[C@@H]5[C@H]4CCCN5c4cccc(F)c4)c3)CC1)c1nnc(C)n1-2 [I-901]	> 200
Cc1sc2c(c1C)C(c1ccc(Cl)cc1)=N[C@@H](CC(=O)NCCCCCCCCCCCCCCC1CCN(c3ccnc(N4CC[C@@H]5[C@H]4CCCN5c4cccc(F)c4)c3)CC1)c1nnc(C)n1-2 [I-902]	> 200
Cc1sc2c(c1C)C(c1ccc(Cl)cc1)=N[C@@H](CC(=O)NCCCCCCCCCCCCCCCCCCCCC1CCN(c3ccnc(N4CC[C@@H]5[C@H]4CCCN5c4cccc(F)c4)c3)CC1)c1nnc(C)n1-2 [I-903]	> 200
C=CC(=O)N(CCCCN1CCN(c2ccnc(N[C@@H]3CCCN(c4cccc(F)c4)C3)c2)CC1)CCOCCOCCNC(=O)C[C@@H]1N=C(c2ccc(Cl)cc2)c2c(sc(C)c2C)-n2c(C)nnc21 [I-904]	10 to 100
C=CC(=O)NCCCCN1CCN(c2ccnc(N(CCCOCCOCCOCCOCCNC(=O)C[C@@H]3N=C(c4ccc(Cl)cc4)c4c(sc(C)c4C)-n4c(C)nnc43)[C@@H]3CCCN(c4cccc(F)c4)C3)c2)CC1 [I-906]	100 to 200
Cc1sc2c(c1C)C(c1ccc(Cl)cc1)=N[C@@H](CC(=O)NCCOCCOCCOCCCc1ccc(C(=O)c3[nH]cc(C(=O)N[C@@H](CC(N)=O)c4cccc(Cl)c4)c3-c3c(F)ccc(F)c3C)cc1)c1nnc(C)n1-2 [I-908]	< 10
Cc1ccc(F)c(C)c1-c1c(C(=O)N[C@@H](CC(N)=O)c2cccc(Cl)c2)c[nH]c1C(=O)COCCOCCOCCOCCOCCNC(=O)C[C@@H]1N=C(c2ccc(Cl)cc2)c2c(sc(C)c2C)-n2c(C)nnc21 [I-909]	< 10
CNC(=O)C[C@H](NC(=O)c1c[nH]c(C(=O)COCCOCCOCCOCCOCCNC(=O)C[C@@H]2N=C(c3ccc(Cl)cc3)c3c(sc(C)c3C)-n3c(C)nnc32)c1-c1c(F)ccc(F)c1C)c1cccc(Cl)c1 [I-910]	< 10
Cc1sc2c(c1C)C(c1ccc(Cl)cc1)=N[C@@H](CC(=O)NCCOCCOCCOCCOCCOCC(=O)c1[nH]cc(C(=O)N[C@@H](CC(=O)N(C)C)c3cccc(Cl)c3)c1-c1c(F)ccc(F)c1C)c1nnc(C)n1-2 [I-911]	< 10

Structure (SMILES)	Kd [µM]
Cc1sc2c(c1C)C(c1ccc(Cl)cc1)=N[C@@H](CC(=O)NCCOCCOCCOCCOCCOCC(=O)c1c(-c3c(F)ccc(F)c3C)c(C(=O)N[C@@H](CC(N)=O)c3cccc(Cl)c3)cn1C)c1nnc(C)n1-2 [I-912]	< 10
Cc1sc2c(c1C)C(c1ccc(Cl)cc1)=N[C@@H](CC(=O)NCCOCCOCCOCCOCCCc1ccc(C(=O)c3[nH]cc(C(=O)N[C@@H](CC(=O)N4CCNCC4)c4cccc(Cl)c4)c3-c3c(F)ccc(F)c3C)cc1)c1nnc(C)n1-2 [I-913]	< 10
Cc1sc2c(c1C)C(c1ccc(Cl)cc1)=N[C@@H](CC(=O)NCCOCCOCCOCCOCCCc1ccc(C(=O)c3[nH]cc(C(=O)N[C@@H](CC(=O)N4CCN(C(=O)OCc5ccccc5)CC4)c4cccc(Cl)c4)c3-c3c(F)ccc(F)c3C)cc1)c1cnc(C)n1-2 [I-914]	< 10
Cc1sc2c(c1C)C(c1ccc(Cl)cc1)=N[C@@H](CC(=O)NCCOCCOCCOCCOCCCc1ccc(C(=O)c3c(-c4c(F)ccc(F)c4C)c(C(=O)N[C@@H](CS(C)(=O)=O)c4cccc(Cl)c4)cn3C)cc1)c1nnc(C)n1-2 [I-915]	< 10
O=[N+]([O-])c1ccc(N2CCC[C@@H](n3ccc4c(N5CCCCC5)ccnc43)C2)cc1F [I-917]	< 10
Cc1cc(CCCOCCOCCOCCOCCOCCN)cc(F)c1-c1c(C(=O)N[C@@H](CC(N)=O)c2cccc(Cl)c2)c[nH]c1C#N [I-918]	< 10
Oc1ccc(C2CCCCC2)cc1N[C@@H]1CCCN(c2cccc(F)c2)C1 [I-921]	10 to 100
COCCN(C)CC1CCN(c2ccnc(N3CC[C@@H]4[C@H]3CCCN4c3cccc(F)c3)c2)CC1 [I-922]	10 to 100
Cc1c(F)ccc(F)c1-c1cn(C)cc1C(=O)N[C@@H](CC(N)=O)c1cccc(Cl)c1 [I-924]	< 10
OC1(c2ccccc2)CCC[C@@H](Nc2cc(N3CCCCC3)ccn2)C1 (stereo partly shown) [I-925]	100 to 200
O[C@@]1(c2ccccc2)CCC[C@@H](Nc2cc(N3CCCCC3)ccn2)C1 [I-929]	10 to 100
Nc1ccc(N[C@@H]2CCCN(c3cccc(F)c3)C2)cc1C1CCCCC1 [I-930]	10 to 100
COCCOCC[C@H]1CN(c2cc(N3CCCCC3)ccn2)[C@@H]2CCCN(c3cccc(F)c3)[C@H]12 [I-931]	< 10
COCCOCC[C@@H]1CN(c2cc(N3CCCCC3)ccn2)[C@H]2CCCN(c3cccc(F)c3)[C@@H]12 [I-934]	< 10
OC[C@H]1C[C@@H](Nc2cc(N3CCCCC3)ccn2)CN(c2cccc(F)c2)C1 [I-936]	10 to 100
NC(=O)Cc1cccc(N2CCC[C@H]3[C@@H]2CCN3c2cc(N3CCCCC3)ccn2)c1 [I-942]	< 10
Cc1c(F)ccc(F)c1-c1c(C(=O)N[C@@H](CC(N)=O)c2cccc(Cl)c2)csc1C(=O)c1ccccc1 [I-944]	< 10
O=c1cc(N2CCC[C@@H](Nc3cc(N4CCCCC4)ccn3)C2)cc[nH]1 [I-945]	10 to 100
NC(=O)C[C@H](NC(=O)c1c[nH]c(C(=O)c2ccccc2)c1-c1c(F)cc(Cl)cc1F)c1cccc(Cl)c1 [I-946]	< 10
NCCNCc1cc(N[C@@H]2CCCN(c3cccc(F)c3)C2)cc(N2CCCCC2)c1 [I-947]	100 to 200
CC(=O)N1CCN(c2ccnc(N3CC[C@@H]4[C@H]3CCCN4c3cccc(F)c3)c2)CC1 [I-948]	10 to 100
NC(=O)C[C@H](NC(=O)c1c[nH]c(C(=O)c2ccccc2)c1-c1c(F)c(F)cc(F)c1F)c1cccc(Cl)c1 [I-949]	< 10
COCCOCCOCC[C@@H]1CN(c2cc(N3CCCCC3)ccn2)[C@H]2CCCN(c3cccc(F)c3)[C@@H]12 [I-950]	10 to 100
COCCOCCOCC[C@H]1CN(c2cc(N3CCCCC3)ccn2)[C@@H]2CCCN(c3cccc(F)c3)[C@H]12 [I-951]	< 10
NC(=O)NCc1cccc(N2CCC[C@H]3[C@@H]2CCN3c2cc(N3CCCCC3)ccn2)c1 [I-953]	< 10
NC(=O)OCc1cccc(N2CCC[C@H]3[C@@H]2CCN3c2cc(N3CCCCC3)ccn2)c1 [I-954]	< 10
NC(=O)OCc1cccc(N2CCC[C@@H]3[C@H]2CCN3c2cc(N3CCCCC3)ccn2)c1 [I-955]	10 to 100

Same assay, conditions: DCAF1-3 SPR (KD), 25 °C

Structure (SMILES)	Kd [µM]
Cc1c(F)ccc(F)c1-c1c(C(=O)N[C@@H](CC(N)=O)c2cccc(Cl)c2)cn(C)c1C#N [I-887, (S)—N-(3-amino-1-(3-chlorophenyl)-3-oxopropyl)-5-cyano-4-(3,6-difluoro-2-methylphenyl)-1-methyl-1H-pyrrole-3-carboxamide]	< 10
